Experimental data: ChEMBL document CHEMBL1201862, “PubChem BioAssay data set” (2004)
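Cultured in 96-well plates, cells were exposed to test compound for 48 hours across five concentrations. The concentration for 50% growth inhibition is given as GI50.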 Active and inactive are the calls of the source. Rule as the data show it: active = GI50 up to about 1.1 µM and inactive = higher.

Key:
Assay in all cases: inhibition of tumour cell growth, NCI panel, 48 h
UACC-257 = test system: UACC-257
SK-OV-3 = test system: SK-OV-3
LOX IMVI = test system: LOX IMVI
ACHN = test system: ACHN
MOLT-4 = test system: MOLT-4
SNB-19 = test system: SNB-19
OVCAR-3 = test system: OVCAR-3
MDA-MB-231 = test system: MDA-MB-231
Malme-3M = test system: Malme-3M
OVCAR-4 = test system: OVCAR-4
HOP-62 = test system: HOP-62
T47D = test system: T47D
SW-620 = test system: SW-620
OVCAR-8 = test system: OVCAR-8
UACC-62 = test system: UACC-62
NCI-H226 = test system: NCI-H226
M14 = test system: M14
CCRF-CEM = test system: CCRF-CEM
HCT-116 = test system: HCT-116
SR = test system: SR

Measured: GI50

COc1nc2ccc(COc3ccc(C(=O)O)cc3)cc2nc1OC
inactive: UACC-257 > 100 µM | SK-OV-3 > 100 µM | LOX IMVI 54.1 µM | ACHN 80.4 µM | MOLT-4 > 100 µM | SNB-19 > 100 µM | OVCAR-3 > 100 µM | MDA-MB-231 > 100 µM | Malme-3M > 100 µM | OVCAR-4 > 100 µM | HOP-62 > 100 µM | T47D > 100 µM | SW-620 83.8 µM | OVCAR-8 36.4 µM | UACC-62 33.6 µM | NCI-H226 78 µM | M14 66.1 µM | CCRF-CEM 36.6 µM | HCT-116 39.9 µM | SR 41.4 µM

C=CC1C(OC2OC(CO)C(O)C(O)C2O)OC=C(C(=O)OC)C1CC1CC(=O)CC(CCc2ccc(O)cc2)O1 (stereo not given)
inactive: UACC-257 > 100 µM | SK-OV-3 > 100 µM | LOX IMVI > 100 µM | ACHN > 100 µM | MOLT-4 > 100 µM | SNB-19 > 100 µM | OVCAR-3 > 100 µM | MDA-MB-231 > 100 µM | Malme-3M > 100 µM | OVCAR-4 > 100 µM | HOP-62 > 100 µM | T47D > 100 µM | SW-620 > 100 µM | OVCAR-8 > 100 µM | UACC-62 > 100 µM | NCI-H226 > 100 µM | M14 > 100 µM | CCRF-CEM > 100 µM | HCT-116 > 100 µM | SR > 100 µM

C[n+]1cn(C2=C([N-]S(=O)(=O)c3ccccc3)C(=O)c3ccccc3C2=O)c2ccccc21
inactive: UACC-257 19.4 µM | SK-OV-3 > 100 µM | LOX IMVI 12.7 µM | ACHN > 100 µM | MOLT-4 23.2 µM | SNB-19 19.3 µM | OVCAR-3 3.06 µM | MDA-MB-231 20.1 µM | Malme-3M 1.55 µM | OVCAR-4 1.59 µM | HOP-62 47.9 µM | T47D 34.1 µM | SW-620 28.6 µM | OVCAR-8 20 µM | UACC-62 22.5 µM | NCI-H226 56.4 µM | M14 16.5 µM | CCRF-CEM 39.6 µM | HCT-116 22.9 µM | SR 44.6 µM

CC1(C)OCC2OC3(c4nc(C#N)c(N)o4)OC(C)(C)OC3C2O1 (stereo not given)
inactive: UACC-257 > 100 µM | SK-OV-3 > 100 µM | LOX IMVI > 100 µM | ACHN > 100 µM | MOLT-4 > 100 µM | SNB-19 > 100 µM | OVCAR-3 > 100 µM | MDA-MB-231 > 100 µM | Malme-3M > 100 µM | OVCAR-4 > 100 µM | HOP-62 > 100 µM | T47D > 100 µM | SW-620 > 100 µM | OVCAR-8 > 100 µM | UACC-62 > 100 µM | NCI-H226 > 100 µM | M14 > 100 µM | CCRF-CEM > 100 µM | HCT-116 > 100 µM | SR > 100 µM

O=C(O)CN(CC(=O)O)C1CCCCC1N1CC(=O)OC(=O)C1 (stereo not given)
inactive: UACC-257 > 100 µM | SK-OV-3 > 100 µM | LOX IMVI > 100 µM | ACHN > 100 µM | MOLT-4 > 100 µM | SNB-19 > 100 µM | OVCAR-3 > 100 µM | MDA-MB-231 > 100 µM | Malme-3M 10.3 µM | OVCAR-4 > 100 µM | HOP-62 > 100 µM | T47D 51.3 µM | SW-620 42.6 µM | OVCAR-8 > 100 µM | UACC-62 > 100 µM | NCI-H226 > 100 µM | M14 > 100 µM | CCRF-CEM > 100 µM | HCT-116 > 100 µM | SR 71.4 µM

CC(C)CC(N)C(=O)Nc1ccc2ccccc2c1 (stereo not given)
inactive: UACC-257 > 100 µM | SK-OV-3 > 100 µM | LOX IMVI > 100 µM | ACHN > 100 µM | MOLT-4 > 100 µM | SNB-19 > 100 µM | OVCAR-3 8.2 µM | MDA-MB-231 > 100 µM | Malme-3M > 100 µM | OVCAR-4 9.4 µM | HOP-62 > 100 µM | T47D > 100 µM | SW-620 > 100 µM | OVCAR-8 > 100 µM | UACC-62 > 100 µM | NCI-H226 67.8 µM | M14 > 100 µM | CCRF-CEM > 100 µM | HCT-116 > 100 µM | SR > 100 µM

COc1cc(Br)cc2nc(-c3cccs3)oc12
inactive: UACC-257 > 100 µM | SK-OV-3 > 90.6 µM | LOX IMVI > 100 µM | ACHN > 83.8 µM | MOLT-4 > 100 µM | SNB-19 > 83 µM | OVCAR-3 > 100 µM | MDA-MB-231 > 42.2 µM | Malme-3M > 100 µM | OVCAR-4 > 26.9 µM | HOP-62 24.5 µM | T47D 6.15 µM | SW-620 > 100 µM | OVCAR-8 > 100 µM | UACC-62 > 100 µM | NCI-H226 > 100 µM | M14 > 100 µM | CCRF-CEM > 100 µM | HCT-116 > 70.6 µM | SR > 100 µM

CCOC(=O)C(NC(=O)CC(C)C)(Nc1ccc(S(=O)(=O)Nc2nc(C)cc(C)n2)cc1)C(F)(F)F (stereo not given)
inactive: UACC-257 > 100 µM | SK-OV-3 > 100 µM | LOX IMVI > 100 µM | ACHN > 100 µM | MOLT-4 > 100 µM | SNB-19 > 100 µM | OVCAR-3 > 100 µM | MDA-MB-231 > 100 µM | Malme-3M > 100 µM | OVCAR-4 > 100 µM | HOP-62 > 100 µM | T47D > 100 µM | SW-620 > 100 µM | OVCAR-8 > 100 µM | UACC-62 > 100 µM | NCI-H226 > 100 µM | M14 > 100 µM | CCRF-CEM > 100 µM | HCT-116 > 100 µM | SR > 100 µM

CC(=O)NNc1nc(C)c(C(/C=C/c2ccccc2O)=N/NC(=O)c2ccncc2)s1
inactive: UACC-257 > 100 µM | SK-OV-3 > 100 µM | LOX IMVI > 100 µM | ACHN > 100 µM | MOLT-4 > 100 µM | SNB-19 > 100 µM | OVCAR-3 > 100 µM | MDA-MB-231 > 100 µM | Malme-3M > 100 µM | OVCAR-4 > 100 µM | HOP-62 > 100 µM | T47D > 100 µM | SW-620 > 100 µM | OVCAR-8 > 100 µM | UACC-62 > 100 µM | NCI-H226 > 100 µM | M14 > 100 µM | CCRF-CEM > 100 µM | HCT-116 > 100 µM | SR > 100 µM

C=CCN1C(=O)/C(=C/c2ccc(Cl)cc2)N=C1SC/C=C/C
inactive: UACC-257 37.8 µM | SK-OV-3 > 100 µM | LOX IMVI 34 µM | ACHN 56.2 µM | MOLT-4 17.5 µM | SNB-19 22.9 µM | OVCAR-3 44.6 µM | MDA-MB-231 42.4 µM | Malme-3M 33.7 µM | OVCAR-4 29.2 µM | HOP-62 > 100 µM | T47D 21 µM | SW-620 31.8 µM | OVCAR-8 29.5 µM | UACC-62 42.3 µM | NCI-H226 > 100 µM | M14 31 µM | CCRF-CEM 39.8 µM | HCT-116 17 µM | SR 17.5 µM
